3 compounds from publication PMC7368294 (Proceedings of the National Academy of Sciences of the …, 2020) can be followed below.

Experiment [1] concerns the target T1, Amα1/Amα8/Amβ1 nAChR (Apis mellifera, UniProt A0A7M7MMZ9+A0A8U0WQ70+A0A8U0WQC0).
T1 sequence (A0A7M7MMZ9 44-627): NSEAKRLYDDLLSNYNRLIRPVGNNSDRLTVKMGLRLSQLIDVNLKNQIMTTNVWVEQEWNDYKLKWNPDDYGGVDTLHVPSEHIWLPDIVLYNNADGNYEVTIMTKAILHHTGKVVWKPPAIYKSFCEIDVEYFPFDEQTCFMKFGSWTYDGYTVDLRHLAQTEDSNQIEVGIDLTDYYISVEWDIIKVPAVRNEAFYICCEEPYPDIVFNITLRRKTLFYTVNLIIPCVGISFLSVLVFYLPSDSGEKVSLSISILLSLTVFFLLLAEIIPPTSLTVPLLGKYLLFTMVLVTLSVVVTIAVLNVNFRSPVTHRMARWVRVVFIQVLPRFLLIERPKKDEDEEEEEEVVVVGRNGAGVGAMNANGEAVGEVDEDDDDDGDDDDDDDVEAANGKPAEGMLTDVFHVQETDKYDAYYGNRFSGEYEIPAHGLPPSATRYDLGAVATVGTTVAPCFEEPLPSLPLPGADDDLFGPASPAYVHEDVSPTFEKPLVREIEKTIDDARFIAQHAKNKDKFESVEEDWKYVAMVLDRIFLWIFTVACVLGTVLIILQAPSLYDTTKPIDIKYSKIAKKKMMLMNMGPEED
T1 sequence (A0A8U0WQ70 25-537): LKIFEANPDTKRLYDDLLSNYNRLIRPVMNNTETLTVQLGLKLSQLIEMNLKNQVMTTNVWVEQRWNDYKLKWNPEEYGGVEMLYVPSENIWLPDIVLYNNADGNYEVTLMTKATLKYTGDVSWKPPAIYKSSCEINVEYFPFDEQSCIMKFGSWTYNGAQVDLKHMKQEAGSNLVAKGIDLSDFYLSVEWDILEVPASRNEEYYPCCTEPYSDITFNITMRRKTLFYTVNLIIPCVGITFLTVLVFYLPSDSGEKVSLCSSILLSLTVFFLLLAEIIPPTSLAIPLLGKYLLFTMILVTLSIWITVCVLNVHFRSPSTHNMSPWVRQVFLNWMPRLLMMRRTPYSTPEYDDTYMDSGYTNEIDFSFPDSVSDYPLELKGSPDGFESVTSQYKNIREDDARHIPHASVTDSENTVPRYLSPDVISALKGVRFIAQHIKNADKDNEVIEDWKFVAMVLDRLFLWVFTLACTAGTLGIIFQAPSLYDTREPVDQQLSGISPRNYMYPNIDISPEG
T1 sequence (A0A8U0WQC0 25-520): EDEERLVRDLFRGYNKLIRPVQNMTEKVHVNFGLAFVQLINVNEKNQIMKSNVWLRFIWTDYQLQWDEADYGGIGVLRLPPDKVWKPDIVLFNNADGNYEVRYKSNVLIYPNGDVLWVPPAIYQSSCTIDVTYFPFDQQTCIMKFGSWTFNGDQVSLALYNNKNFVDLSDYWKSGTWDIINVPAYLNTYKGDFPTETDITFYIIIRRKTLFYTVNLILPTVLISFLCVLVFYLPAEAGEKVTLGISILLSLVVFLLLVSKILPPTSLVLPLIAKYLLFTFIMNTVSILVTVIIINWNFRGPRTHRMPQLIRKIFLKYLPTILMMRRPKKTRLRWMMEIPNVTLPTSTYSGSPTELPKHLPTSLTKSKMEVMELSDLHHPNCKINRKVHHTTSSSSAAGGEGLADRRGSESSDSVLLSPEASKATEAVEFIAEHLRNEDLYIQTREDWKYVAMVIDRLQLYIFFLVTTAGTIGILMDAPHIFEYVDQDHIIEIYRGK
The experiment can be described thus: cell-based. Details: species or system Xenopus laevis oocytes. The conditions noted are these: Oocyte.

Experiment [2] concerns the target T1, Amα1/Amα8/Amβ1 nAChR. The experiment can be described thus: two-electrode voltage clamp of Xenopus oocytes, agonist concentration-response. Format: cell-based.
The target of experiment [3] is Btα1/Btα2/Btα8/Btβ1 nAChR (Bombus terrestris, UniProt A0A9B0BGM1+A0A9B0F4H3+A0A9B2JDZ7+A0A9B2JMX7). Put plainly: cell-based. On the set-up: species or system Xenopus laevis oocytes. The conditions noted are these: Oocyte.
In another experiment the target is T2, Dα1/Dβ1 nAChR (Drosophila melanogaster, UniProt P04755+P09478).
T2 sequence (P09478 22-567): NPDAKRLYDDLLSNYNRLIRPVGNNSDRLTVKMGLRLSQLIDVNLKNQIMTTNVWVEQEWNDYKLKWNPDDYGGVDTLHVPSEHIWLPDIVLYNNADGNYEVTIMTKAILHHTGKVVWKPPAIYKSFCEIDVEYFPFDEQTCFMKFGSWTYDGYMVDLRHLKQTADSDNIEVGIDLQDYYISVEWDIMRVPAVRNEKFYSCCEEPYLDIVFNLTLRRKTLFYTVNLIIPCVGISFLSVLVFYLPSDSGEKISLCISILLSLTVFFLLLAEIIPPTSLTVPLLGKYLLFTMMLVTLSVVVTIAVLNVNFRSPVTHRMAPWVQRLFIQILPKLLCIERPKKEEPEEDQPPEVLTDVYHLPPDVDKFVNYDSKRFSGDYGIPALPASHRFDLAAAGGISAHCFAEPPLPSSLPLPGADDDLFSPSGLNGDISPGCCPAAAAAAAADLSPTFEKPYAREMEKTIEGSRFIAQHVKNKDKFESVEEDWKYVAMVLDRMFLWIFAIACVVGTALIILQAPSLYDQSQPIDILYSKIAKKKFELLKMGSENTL
T2 sequence (P04755 25-521): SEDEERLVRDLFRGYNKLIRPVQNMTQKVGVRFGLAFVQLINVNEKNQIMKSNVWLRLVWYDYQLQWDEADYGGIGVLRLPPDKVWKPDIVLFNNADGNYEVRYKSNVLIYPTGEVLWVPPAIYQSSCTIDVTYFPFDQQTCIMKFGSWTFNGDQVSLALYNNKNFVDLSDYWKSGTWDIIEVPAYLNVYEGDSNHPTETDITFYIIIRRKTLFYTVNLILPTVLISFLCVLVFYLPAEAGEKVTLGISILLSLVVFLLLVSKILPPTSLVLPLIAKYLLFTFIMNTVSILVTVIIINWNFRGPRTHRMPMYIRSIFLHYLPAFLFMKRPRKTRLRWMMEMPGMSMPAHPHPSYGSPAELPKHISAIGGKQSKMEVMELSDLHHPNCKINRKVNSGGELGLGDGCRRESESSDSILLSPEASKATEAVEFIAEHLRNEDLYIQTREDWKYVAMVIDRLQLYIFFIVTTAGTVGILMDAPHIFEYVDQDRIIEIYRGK
Put plainly: cell-based. Details: species or system Xenopus laevis oocytes. The conditions noted are these: Oocyte.

The structures appear in SMILES notation. Like-named read-outs stand apart in the source and are kept apart here.

Btα1/Btα2/Btα8/Btβ1 nAChR, sequence (A0A9B0F4H3 44-615): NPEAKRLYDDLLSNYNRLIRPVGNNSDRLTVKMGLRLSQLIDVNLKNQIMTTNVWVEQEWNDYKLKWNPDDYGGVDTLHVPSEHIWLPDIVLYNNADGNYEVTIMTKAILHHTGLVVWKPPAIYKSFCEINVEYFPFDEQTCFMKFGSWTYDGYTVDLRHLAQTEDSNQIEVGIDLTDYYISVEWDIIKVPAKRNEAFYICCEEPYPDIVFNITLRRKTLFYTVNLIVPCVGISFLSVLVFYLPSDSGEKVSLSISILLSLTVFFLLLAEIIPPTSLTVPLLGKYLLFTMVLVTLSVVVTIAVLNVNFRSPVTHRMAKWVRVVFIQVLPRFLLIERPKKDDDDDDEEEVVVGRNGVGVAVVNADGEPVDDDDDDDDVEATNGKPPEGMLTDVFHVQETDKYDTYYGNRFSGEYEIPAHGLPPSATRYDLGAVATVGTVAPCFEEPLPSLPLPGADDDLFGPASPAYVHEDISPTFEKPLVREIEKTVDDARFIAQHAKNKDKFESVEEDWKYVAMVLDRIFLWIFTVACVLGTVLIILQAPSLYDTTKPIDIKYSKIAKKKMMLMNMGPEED
Btα1/Btα2/Btα8/Btβ1 nAChR, sequence (A0A9B2JMX7 18-544): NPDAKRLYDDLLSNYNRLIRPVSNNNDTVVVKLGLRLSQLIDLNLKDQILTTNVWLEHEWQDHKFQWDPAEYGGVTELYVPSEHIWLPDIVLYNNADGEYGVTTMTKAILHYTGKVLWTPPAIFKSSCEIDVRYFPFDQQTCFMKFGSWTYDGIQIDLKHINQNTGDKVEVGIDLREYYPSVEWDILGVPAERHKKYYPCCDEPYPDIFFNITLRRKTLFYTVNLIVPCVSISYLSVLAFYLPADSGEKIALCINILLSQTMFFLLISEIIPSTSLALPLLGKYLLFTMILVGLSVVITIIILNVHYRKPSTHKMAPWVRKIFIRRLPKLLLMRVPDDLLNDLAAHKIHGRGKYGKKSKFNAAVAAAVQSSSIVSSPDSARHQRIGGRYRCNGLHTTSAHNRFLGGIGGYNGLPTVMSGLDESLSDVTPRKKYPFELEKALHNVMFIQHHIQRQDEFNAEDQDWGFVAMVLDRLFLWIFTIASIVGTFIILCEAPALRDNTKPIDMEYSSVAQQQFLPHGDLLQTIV
Btα1/Btα2/Btα8/Btβ1 nAChR, sequence (A0A9B2JDZ7 22-535): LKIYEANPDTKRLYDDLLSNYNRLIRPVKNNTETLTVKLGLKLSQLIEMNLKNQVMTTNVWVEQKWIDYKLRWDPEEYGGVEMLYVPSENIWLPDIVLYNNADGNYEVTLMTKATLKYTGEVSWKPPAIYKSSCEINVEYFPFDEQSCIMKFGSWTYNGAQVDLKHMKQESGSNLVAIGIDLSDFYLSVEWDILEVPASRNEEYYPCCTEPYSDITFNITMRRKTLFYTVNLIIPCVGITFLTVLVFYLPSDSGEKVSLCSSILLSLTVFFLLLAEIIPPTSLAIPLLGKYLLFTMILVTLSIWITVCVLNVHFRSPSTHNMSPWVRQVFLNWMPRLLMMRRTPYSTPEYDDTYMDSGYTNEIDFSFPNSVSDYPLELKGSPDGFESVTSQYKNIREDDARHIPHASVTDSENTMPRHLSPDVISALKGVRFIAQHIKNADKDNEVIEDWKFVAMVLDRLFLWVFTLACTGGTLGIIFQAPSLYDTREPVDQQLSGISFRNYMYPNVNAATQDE
Btα1/Btα2/Btα8/Btβ1 nAChR, sequence (A0A9B0BGM1 19-519): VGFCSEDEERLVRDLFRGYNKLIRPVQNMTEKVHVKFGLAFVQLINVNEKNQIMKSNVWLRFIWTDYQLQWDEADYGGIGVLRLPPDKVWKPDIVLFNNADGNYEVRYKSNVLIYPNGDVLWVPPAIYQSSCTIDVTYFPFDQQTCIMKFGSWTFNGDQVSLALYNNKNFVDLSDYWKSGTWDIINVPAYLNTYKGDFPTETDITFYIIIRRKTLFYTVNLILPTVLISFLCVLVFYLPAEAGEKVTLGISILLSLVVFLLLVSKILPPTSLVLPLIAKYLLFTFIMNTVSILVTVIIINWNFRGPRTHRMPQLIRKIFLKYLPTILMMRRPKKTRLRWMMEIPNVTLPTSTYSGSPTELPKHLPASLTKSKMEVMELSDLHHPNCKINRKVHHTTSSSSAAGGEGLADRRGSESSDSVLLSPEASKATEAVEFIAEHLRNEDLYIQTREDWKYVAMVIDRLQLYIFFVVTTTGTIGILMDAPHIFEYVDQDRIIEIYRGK

In the case of `CN/C(=N\[N+](=O)[O-])NCc1cnc(Cl)s1` [clothianidin], the Emax on Amα1/Amα8/Amβ1 nAChR [1] (read-out: Clothianidin / Imax) stood at 78.8 ± 2%; in experiment [3] (read-out: Clothianidin / Imax) it was 68 ± 2.9%; on Dα1/Dβ1 nAChR (read-out: Clothianidin / Imax), 29.6 ± 1.3%. Also, the EC50 at Amα1/Amα8/Amβ1 nAChR [2] was 11 nM.

As for `O=[N+]([O-])NC1=NCCN1Cc1ccc(Cl)nc1` [imidacloprid], the figures for the Emax (at Amα1/Amα8/Amβ1 nAChR [1] (read-out: Imidacloprid / Imax); in experiment [3] (read-out: Imidacloprid / Imax); on Dα1/Dβ1 nAChR (read-out: Imidacloprid / Imax)) were 7.5 ± 0.4%, 8.5 ± 0.7% and 11.2 ± 0.9%, respectively. The compound further had an EC50 at Amα1/Amα8/Amβ1 nAChR [2] of 23.4 nM.

Turning to `N#C/N=C1\SCCN1Cc1ccc(Cl)nc1` [thiacloprid], the results for the Emax (on Amα1/Amα8/Amβ1 nAChR [1] (read-out: Thiacloprid / Imax); in experiment [3] (read-out: Thiacloprid / Imax); on Dα1/Dβ1 nAChR (read-out: Thiacloprid / Imax)) were 5.8 ± 0.6%, 9.2 ± 1.1% and 6.5 ± 0.5%, respectively. Further, the EC50 on Amα1/Amα8/Amβ1 nAChR [2] is 11.5 nM.

The term EC50 denotes the midpoint of the concentration-response curve.
